Patent US8501802B2, “Co-crystals of duloxetine and COX-INHIBITORs for the treatment of pain” (Laboratorios del Dr. Esteve, S.A., priority 2008, dated 2013)
Where a name gives a salt, the structure may show the parent alone.

Conditions: for Δ % weight 24 h / Δ % weight 48 h / Δ % weight 6 days: 64±5% relative humidity, 22±2° C.; for KF (t = 0): Karl Fischer value at the beginning of the study; for Hygroscopicity class according to the scale: PharmaEuropa scale of % incorporation of water
Protocol: The objective was to measure the hygroscopicity of the salts of the present invention, and comparing it with the one of the known salt of each counter part of the salts. The increasing of the weight will be measured in order to evaluate the incorporation of water in the samples, together with the Karl Fischer factor.
The scale is the following:
Preparation of the Humidity chamber: A supersaturated solution of sodium nitrite (45 g/50 ml) is prepared and introduced in a humidification chamber (samplaterecord). The chamber is maintained at a temperature of 22±2° C. during 24 hours before use, and humidity is controlled each day.
The variation of the weight is controlled and the following percentage is calculated: Δ%weight=(Pn−P1)/P1×100 wherein: P1 is the initial weight, Pn is the weight measured for the sample.

Structure (SMILES)	Δ % weight 24 h	Δ % weight 48 h	Δ % weight 6 days	KF (t = 0)	Hygroscopicity class according to the scale
CNCC[C@H](Oc1cccc2ccccc12)c1cccs1.CNCC[C@H](Oc1cccc2ccccc12)c1cccs1.COc1ccc2cc([C@H](C)C(=O)O)ccc2c1.COc1ccc2cc([C@H](C)C(=O)O)ccc2c1.COc1ccc2cc([C@H](C)C(=O)O)ccc2c1	0%	0.09%	0.13%	0.36	not hygroscopic
CNCC[C@H](Oc1cccc2ccccc12)c1cccs1 [Duloxetine HCl]	0.19%	0.26%	0.18%	0.33	not hygroscopic
COc1ccc2cc([C@H](C)C(=O)[O-])ccc2c1.[Na+] [sodium naproxen]	14.39%	14.39%	14.3%	1.04	hygroscopic
